Target: T1, bradykinin receptor 1 (B1R) of the rat (Rattus norvegicus, UniProt P97583)
T1 construct: expressed in transfected cells; host or cells: CHO K1 cells
T1 sequence (P97583 1-337): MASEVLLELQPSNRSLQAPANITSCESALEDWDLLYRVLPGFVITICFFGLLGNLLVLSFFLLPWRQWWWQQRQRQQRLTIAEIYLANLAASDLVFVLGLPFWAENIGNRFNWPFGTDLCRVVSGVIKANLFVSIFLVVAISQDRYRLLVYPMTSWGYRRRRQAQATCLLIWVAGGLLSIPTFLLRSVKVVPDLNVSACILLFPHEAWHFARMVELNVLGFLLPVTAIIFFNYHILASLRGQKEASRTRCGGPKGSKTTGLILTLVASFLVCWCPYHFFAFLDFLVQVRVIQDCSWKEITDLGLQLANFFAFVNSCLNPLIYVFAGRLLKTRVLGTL
Experiment: Functional study on the bradykinin receptor 1 (B1R), rat: FLIPR Ca2+ influx assay
Format: cell-based
Settings: test substance 10 μM; CHO K1 cells transfected with rat B1R; Des-Arg9-bradykinin at EC80; Ca2+ influx (Fluo-4, FLIPR); read-out: B1R antagonism, rat [10 μM] % inhibition
From the text: The agonistic or antagonistic action of substances can be determined on the bradykinin receptor 1 (B1R) of the species human and rat using the following assay. According to this assay, the Ca^2+ influx through the channel is quantified with the aid of a Ca^2+-sensitive dye (Fluo-4 type, Molecular Probes Europe BV, Leiden, Netherlands) using a Fluorescent Imaging Plate Reader (FLIPR, Molecular Devices, Sunnyvale, USA).
Chinese hamster ovary cells (CHO K1 cells) which have been stably transfected with the human B1R gene (hB1R cells) or with the B1R gene of the rat (rB1R cells) are used. For functional studies, the cells are plated out on black 96-well plates having a clear base (BD Biosciences, Heidelberg, Germany or Greiner, Frickenhausen, Germany) in a density of 20,000-35,000 cells/well. The cells are incubated overnight at 37° C. and with 5% CO2 in culture medium (hB1R cells: Nutrient Mixture Ham's F12, Gibco Invitrogen GmbH, Karlsruhe, Germany or DMEM, Sigma-Aldrich, Taufkirchen, Germany; rB1R cells: D-MEM/F12, Gibco Invitrogen GmbH, Karlsruhe, Germany), with 10 vol. % FBS (fetal bovine serum, Gibco Invitrogen GmbH, Karlsruhe, Germany or PAN Biotech GmbH, Aidenbach, Germany).
On the following day, the cells are loaded for 60 minutes at 37° C. with 2.13 μM Fluo-4 (Molecular Probes Europe BV, Leiden, Netherlands) in HBSS buffer (Hank's buffered saline solution, Gibco Invitrogen GmbH, Karlsruhe, Germany) with 2.5 mM probenecid (Sigma-Aldrich, Taufkirchen, Germany) and 10 mM HEPES (Sigma-Aldrich, Taufkirchen, Germany). The plates are then washed twice with HBSS buffer, and HBSS buffer additionally containing 0.1% BSA (bovine serum albumin; Sigma-Aldrich, Taufkirchen, Germany), 5.6 mM glucose and 0.05% gelatin (Merck KGaA, Darmstadt, Germany) is added to the plates. After incubation for a further 20 minutes at room temperature, the plates are inserted into the FLIPR for Ca^2+ measurement. Alternatively, washing is carried out with buffer A (15 mM HEPES, 80 mM NaCl, 5 mM KCl, 1.2 mM CaCl2, 0.7 mM MgSO4, 2 g/l glucose, 2.5 mM probenecid) followed by loading with buffer A with added 2.5 μM Fluo-4 and 0.025% Pluronic F127 (Sigma-Aldrich, Taufkirchen, Germany). The cells are then washed twice with buffer A and incubated for 30 minutes at room temperature with buffer A additionally containing 0.05% BSA and 0.05% gelatin and are then inserted into the FLIPR for Ca^2+ measurement.
The Ca^2+-dependent fluorescence is measured before and after the addition of substances (λex=488 nm, λem=540 nm). Quantification is carried out by measuring the highest fluorescence intensity (FC, fluorescence counts) over time.
The FLIPR protocol consists of two substance additions. Test substances (10 μM) are first pipetted onto the cells and the Ca^2+ influx is compared with the control (hB1R: Lys-Des-Arg^9-bradykinin>=0.5 nM; rB1R: Des-Arg^9-bradykinin 10 μM). This gives the activation in %, based on the Ca^2+ signal after addition of Lys-Des-Arg^9-bradykinin (>=0.5 nM) or Des-Arg^9-bradykinin (10 μM).
After 10-20 minutes' incubation, Lys-Des-Arg^9-bradykinin (hB1R) or Des-Arg^9-bradykinin (rB1R) is applied in the concentration of the EC80, and the influx of Ca^2+ is likewise determined.
Antagonists lead to suppression of the Ca^2+ influx. The % inhibition compared with the maximum achievable inhibition is calculated.
In order to determine the IC50 value, the substances are added in various concentrations. Duplicate or triplicate determinations (n=2 or n=3) are carried out, and these are repeated in at least one further independent experiment (N>=2).

Compound | inhibition at 10 µM [%]
CN(C)C(c1ccccc1)C1CCC(NC(=O)c2c(N(C)S(=O)(=O)c3ccc(Cl)c(Cl)c3)sc3c2CCCC3)CC1 (stereo not shown) [Example 12, 2-[(3,4-dichloro-benzenesulfonyl)-methyl-amino]-4,5,6,7-tetrahydrobenzo[b]thiophene-3-carboxylic acid [4-(dimethylamino-phenyl-methyl)cyclohexyl]-amide] | 0
CN(C)C(c1cccc(F)c1)C1CCC(CCNC(=O)c2c(N(C)S(=O)(=O)c3ccc(Cl)c(Cl)c3)sc3c2CCCC3)CC1 (stereo not shown) [Example 51, 2-(3,4-dichloro-N-methylphenylsulfonamido)-N-(2-(4-((dimethylamino)(3-fluorophenyl)methyl)cyclohexyl)ethyl)-4,5,6,7-tetrahydrobenzo[b]thiophene-3-carboxamide] | 1
CN(C)C(c1ccc(Cl)cc1)C1CCC(CCNC(=O)c2c(N(C)S(=O)(=O)c3ccc(Cl)c(Cl)c3)sc3c2CCCC3)CC1 (stereo not shown) [Example 50, N-(2-(4-((4-chlorophenyl)(dimethylamino)methyl)cyclohexyl)ethyl)-2-(3,4-dichloro-N-methylphenylsulfonamido)-4,5,6,7-tetrahydrobenzo[b]thiophene-3-carboxamide] | 11
CN(C)C(c1cccs1)C1CCC(CNC(=O)c2ccccc2N(C)S(=O)(=O)c2ccc(Cl)c(Cl)c2)CC1 (stereo not shown) [Example 42, 2-[(3,4-dichloro-benzenesulfonyl)-methyl-amino]-N-[4-(dimethylamino-thiophen-2-yl-methyl)-cyclohexylmethyl]-benzamide] | 3
CN(C)C(CCc1ccccc1)C1CCC(CNC(=O)C2Cc3ccccc3N2S(=O)(=O)c2ccc(Cl)c(Cl)c2)CC1 (stereo not shown) [Example 96, 1-(3,4-dichlorophenylsulfonyl)-N-((4-(1-(dimethylamino)-3-phenylpropyl)cyclohexyl)methyl)indoline-2-carboxamide] | 12
COc1ccc(S(=O)(=O)N(C)C2(C(=O)NCCC3CCC(C(c4ccccc4)N(C)C)CC3)CCCCC2)cc1 (stereo not shown) [Example 100, N-(2-(4-((dimethylamino)(phenyl)methyl)cyclohexyl)ethyl)-1-(4-methoxy-N-methylphenylsulfonamido)cyclohexanecarboxamide] | -2
CN(C)C(c1ccc(Cl)cc1)C1CCC(CNC(=O)c2c(N(C)S(=O)(=O)c3ccc(Cl)c(Cl)c3)sc3c2CCCC3)CC1 (stereo not shown) [Example 48, 2-[(3,4-dichloro-benzenesulfonyl)-methyl-amino]-4,5,6,7-tetrahydrobenzo[b]thiophene-3-carboxylic acid {4-[(4-chloro-phenyl)-dimethylamino-methyl]-cyclohexylmethyl}-amide] | 19
CN(C)C(c1ccc(F)cc1)C1CCC(NC(=O)C2Cc3ccccc3N2S(=O)(=O)c2ccc(Cl)c(Cl)c2)CC1 (stereo not shown) [Example 94, 1-(3,4-dichlorophenylsulfonyl)-N-(4-((dimethylamino)(4-fluorophenyl)methyl)cyclohexyl)indoline-2-carboxamide] | -19
CN(C)C(c1ccc(F)cc1)C1CCC(CNC(=O)c2c(N(C)S(=O)(=O)c3ccc(Cl)c(Cl)c3)sc3c2CCCC3)CC1 (stereo not shown) [Example 47, 2-[(3,4-dichloro-benzenesulfonyl)-methyl-amino]-4,5,6,7-tetrahydrobenzo[b]thiophene-3-carboxylic acid {4-[dimethylamino-(4-fluoro-phenyl)methyl]-cyclohexylmethyl}-amide] | 12
CN(C)C(c1cccs1)C1CCC(CCNC(=O)c2c(N(C)S(=O)(=O)c3ccc(Cl)c(Cl)c3)sc3c2CCCC3)CC1 (stereo not shown) [Example 53, 2-(3,4-dichloro-N-methylphenylsulfonamido)-N-(2-(4-((dimethylamino)(thiophen-2-yl)methyl)cyclohexyl)ethyl)-4,5,6,7-tetrahydrobenzo[b]thiophene-3-carboxamide] | 12
